Where two headings read alike, the source gives them in different places.
Key:
[1] = system: rice plants comprising the TaQ8GTC0 gene introduced therein; experiment: Herbicide resistance test of rice plants comprising the TaQ8GTC0 gene, gellan gum medium, plant height; type: in vivo; conditions: for IC50: Oryza sativa, read-out: I50
Experimental: Hoagland's mix and 3 g of gellan gum were suspended in 1 liter of distilled water and thoroughly dissolved therein by heating in a microwave. A fraction of the resultant (15 ml) was injected into a tubular bottle before it was cooled (30 ml was injected into the plate). The herbicide was simultaneously added at the time of injection of the gellan gum medium into the tubular bottle or plate, followed by thorough mixing. Rice hulls were soaked in a 50-fold diluted sodium hypochlorite solution (antiformin) (Wako) for approximately 20 minutes and then thoroughly washed with water. Sterilized seeds were soaked in distilled water and allowed to stand at 27° C. for germination (for approximately 2 days). Germinating seeds were softly planted in the gellan gum medium (plate) containing 0.25 μM BS. These samples, together with a beaker filled with distilled water, were placed in a transparent case, which was then covered with a clear plastic wrap. These samples were grown at 27° C. under fluorescent light illumination (14 hours of a light period and 10 hours of a dark period) for 2 days. Thereafter, rice seeds that were determined to have BS resistance with the use of root elongation as the indicator were transferred to gellan gum media containing pyroxasulfone (tubal bottles) at the final concentrations of 10^−8, 10^−7, 10^−6, and 10^−5M, respectively. Subsequently, these samples, together with a beaker filled with distilled water, were placed in a transparent case, which was then covered with a clear plastic wrap. These samples were grown at 27° C. under fluorescent light illumination (14 hours of a light period and 10 hours of a dark period) for 4 to 5 days, and the plant heights were then measured. Inhibition of shoot growth was determined by comparison to control plants grown in the absence of pyroxasulfone and the concentration for required 50% inhibition (IC50) was determined by the Probit method.
Resistance of rice plants comprising the TaQ8GTC0 gene introduced therein to VLCFAE-inhibiting herbicides was tested in the same manner as with the pyroxasulfone resistance test described above.
FIGS. 7-1 to 7-6 show the results. In FIGS. 7-1 to 7-6, the concentration of 0 μM, the minimal concentration shown in Table 4 (×1), the concentration 4 times higher than the minimal concentration shown in Table 4 (×4), and the concentration 16 times higher than the minimal concentration shown in Table 4 (×16) are shown successively from left to right.

[2] = system: wild-type rice plant (Nipponbare); experiment: Sensitivity of wild-type rice (Nipponbare) to VLCFAE-inhibiting herbicides, gellan gum medium; type: in vivo; conditions: Oryza sativa, 168 h
Experimental: Whether or not a rice plant comprising the TaQ8GTC0 gene introduced therein has VLCFAE-inhibiting herbicide resistance was determined on the basis of a difference in sensitivity of rice between transformant and wild-type. Accordingly, the sensitivity of the wild-type rice plant (Nipponbare) to VLCFAE-inhibiting herbicides used in the glutathione conjugation activity test was examined as described below.
The growth inhibition test was carried out using a gellan gum medium. Hoagland's mix and 3 g of gellan gum were suspended in 1 liter of distilled water and thoroughly dissolved therein by heating in a microwave. A fraction of the resultant (15 ml) was poured in a tubular bottle before it was cooled. When the herbicide (an acetone solution) was to be incorporated thereinto, the herbicide was simultaneously added at the time of filling of the gellan gum medium into the tubular bottle, followed by thorough mixing (final acetone concentration: 0.1%). Rice hulls were soaked in a 50-fold diluted sodium hypochlorite solution (antiformin) (Wako) for approximately 20 minutes and then thoroughly rinsed with water. Sterilized seeds were soaked in distilled water and allowed to stand at 27° C. for germination (for approximately 2 days). Germinating seeds were transferred with the sprout side up to a gellan gum medium containing herbicide (the tubular bottle). Subsequently, these samples, together with a beaker filled with distilled water, were placed in a transparent case, which was then covered with a clear plastic wrap. These samples were grown at 27° C. under fluorescent light illumination (14 hours of a light period and 10 hours of a dark period) for 1 week, the plants were sampled, and the plant heights were then measured. Inhibition of shoot growth was determined by comparison to control plant grown in the absence of herbicide and the concentration required for 50% inhibition (IC50) was determined by the Probit method.

[3] = system: transgenic rapeseed plants comprising the TaQ8GTC0 gene; experiment: Rapeseed sensitivity test 1 (post-sowing/pre-emergence soil treatment), transgenic; type: in vivo, Brassica napus
Experimental: Wild-type rapeseed plants (variety: Westar) and transgenic rapeseed plants comprising the wheat GST gene introduced therein were subjected to Rapeseed sensitivity test 1 in plastic pots (length: 8 cm; width: 8 cm; height: 6 cm). The test was carried out in Fujino soil (sandy loam soil), and 4 seeds of wild-type rapeseed and 8 seeds of transgenic rapeseed were sown in each pot (sowing depth: 1 cm). Water dispersible granules containing 50% pyroxasulfone were applied at 5 different doses of 1, 4, 16, 63, and 250 g a.i./ha (n=3). Immediately after pyroxasulfone treatment, about 1 mm of rain was fallen with the use of artificial rainfall device, and water was supplied from the bottom of the pots. Thereafter, water was supplied from the bottom of the pot when the soil surface was dried in the pot, according to need.
The difference in the sensitivity of rapeseed to pyroxasulfone applied pre-emergence was examined (temperature: 22° C., fluorescent light), and whether or not the transgenic rapeseed plant comprising wheat GST had pyroxasulfone resistance was evaluated in terms of the plant height, the herbicidal symptoms, and the cotyledon growth. Specifically, heights of the plants were measured 2 weeks after seeds sowing of rapeseed and pyroxasulfone application, and the inhibition was assessed by comparison to control plants grown in the absence of pyroxauslfone (n=4 to 12). In FIGS. 37 to 39, “TaGST” stands for a transgenic rapeseed plant comprising the TaQ8GTC0 gene. Values in the table in FIG. 38 are expressed as the mean±standard deviation (n=4 to 12).

Cn1nc(C(F)(F)F)c(CS(=O)(=O)C2=NOC(C)(C)C2)c1OC(F)F [Pyroxasulfone, 3-[5-(difluoromethoxy)-1-methyl-3-(trifluoromethyl)pyrazol-4-ylmethylsulfonyl]-4,5-dihydro-5,5-dimethyl-1,2-oxazole] was tested, and the “pyroxasulfone resistance relative to wild-type plants” value ([1]; 16 lines among 18 lines used in the test) was at least 10 times, the IC50 ([1]; lineage #1-3) was 1.14 µM and the IC50 ([1]; lineage #1-4) was 1.31 µM. It also gave an IC50 ([1]; lineage #1-7) of 0.969 µM, an IC50 ([1]; lineage #1-10) of 0.51 µM and an IC50 ([1]; lineage #2-6) of 0.968 µM. It also gave an IC50 ([1]; lineage #2-9) of 1.09 µM, an IC50 ([1]; lineage #3-4) of 1.72 µM and an IC50 ([1]; lineage #3-9) of 1.01 µM. For the same molecule, the IC50 ([1]; lineage #3-12) was 0.067 µM, the IC50 ([1]; lineage #3-13) was 13.8 µM and the IC50 ([1]; lineage #4-1) was 0.496 µM. For the same molecule, the IC50 ([1]; lineage #4-3) was 4.32 µM, the IC50 ([1]; lineage #4-7) was 7.15 µM and the IC50 ([1]; lineage #4-10) was 2.12 µM. For the same molecule, the IC50 ([1]; lineage #4-13) was 3.85 µM, the IC50 ([1]; lineage #4-14) was 0.045 µM and the IC50 ([1]; lineage #5-1) was 0.968 µM. For the same molecule, the IC50 ([1]; lineage #5-11) was 0.983 µM, the “Pyroxasulfone resistance (ratio of IC50 of transformed rice to IC50 of wild-type rice)” value ([1]; lineage #1-3) was 29 and the “Pyroxasulfone resistance (ratio of IC50 of transformed rice to IC50 of wild-type rice)” value ([1]; lineage #1-4) was 33. For the same molecule, the “Pyroxasulfone resistance (ratio of IC50 of transformed rice to IC50 of wild-type rice)” value ([1]; lineage #1-7) was 25, the “Pyroxasulfone resistance (ratio of IC50 of transformed rice to IC50 of wild-type rice)” value ([1]; lineage #1-10) was 13 and the “Pyroxasulfone resistance (ratio of IC50 of transformed rice to IC50 of wild-type rice)” value ([1]; lineage #2-6) was 25. For the same molecule, the “Pyroxasulfone resistance (ratio of IC50 of transformed rice to IC50 of wild-type rice)” value ([1]; lineage #2-9) was 28, the “Pyroxasulfone resistance (ratio of IC50 of transformed rice to IC50 of wild-type rice)” value ([1]; lineage #3-4) was 44 and the “Pyroxasulfone resistance (ratio of IC50 of transformed rice to IC50 of wild-type rice)” value ([1]; lineage #3-9) was 26. For the same molecule, the “Pyroxasulfone resistance (ratio of IC50 of transformed rice to IC50 of wild-type rice)” value ([1]; lineage #3-12) was 2, the “Pyroxasulfone resistance (ratio of IC50 of transformed rice to IC50 of wild-type rice)” value ([1]; lineage #3-13) was 353 and the “Pyroxasulfone resistance (ratio of IC50 of transformed rice to IC50 of wild-type rice)” value ([1]; lineage #3-13, listed as pyroxasulfone) was “approximately 350”. The “growth of rice plants comprising the TaQ8GTC0 gene on herbicide medium” value ([1]; lineage #3-13, minimal concentration (×1), ×4 and ×16 of Table 4) was “the growth thereof was not affected at the maximal test concentration”, the “Pyroxasulfone resistance (ratio of IC50 of transformed rice to IC50 of wild-type rice)” value ([1]; lineage #4-1) was 13 and the “Pyroxasulfone resistance (ratio of IC50 of transformed rice to IC50 of wild-type rice)” value ([1]; lineage #4-3) was 111. For the same molecule, the “Pyroxasulfone resistance (ratio of IC50 of transformed rice to IC50 of wild-type rice)” value ([1]; lineage #4-7) was 183, the resistance to pyroxasulfone ([1]; lineage #4-7, no data disclosed) was “high level of resistance” and the “Pyroxasulfone resistance (ratio of IC50 of transformed rice to IC50 of wild-type rice)” value ([1]; lineage #4-10) was 54. For the same molecule, the “Pyroxasulfone resistance (ratio of IC50 of transformed rice to IC50 of wild-type rice)” value ([1]; lineage #4-13) was 99, the “Pyroxasulfone resistance (ratio of IC50 of transformed rice to IC50 of wild-type rice)” value ([1]; lineage #4-14) was 1 and the “Pyroxasulfone resistance (ratio of IC50 of transformed rice to IC50 of wild-type rice)” value ([1]; lineage #5-1) was 25. For the same molecule, the “Pyroxasulfone resistance (ratio of IC50 of transformed rice to IC50 of wild-type rice)” value ([1]; lineage #5-11) was 25, the minimal effective concentration ([2]; minimal concentration at which growth of wild-type rice is inhibited, read-out: Minimal inhibitory concentration) was 0.075 µM and the IC50 ([2]; shoot growth, 1 week, Probit method, read-out: I50) was 0.048 µM. For the same molecule, the cotyledon growth ([3]; 250 g a.i./ha) was “grew to a certain extent”, the inhibition at 16 g/ha ([3]; Brassica napus, 336 h, 16 g a.i./ha, 2 weeks after sowing and application, 22° C., read-out: shoot growth inhibition (plant height)) was 48.2% and the “herbicidal symptoms (cotyledons dark green)” value ([3]; pre-emergence soil treatment, doses up to 250 g a.i./ha) was “not detected”.

From US11198710B2, “Transgenic plant having herbicide resistance” (priority 2016, dated 2021)
